In patent publication US20240108634A1, “COMPOSITIONS AND METHODS FOR INHIBITING YAP” (The United States Government as represented by the …, priority 2021, published 2024):

Tested on: YAP-TEAD transcriptional activity
Experiment: HOP-flash TEAD binding site luciferase reporter
Type: cell-based, human
Conditions: LN229 or GBM39 cells, 18 h
Protocol: Levels of total YAP were determined via ELISA. […] Immunoprecipitates were immunoblotted for the indicated proteins. […] Cells were treated with the indicated concentrations of inhibitor for 18 h and mRNA extracted for real time RT-PCR analyses. Measurements were performed in quadruplicate and means and+S.D. are shown. […] Cells were treated with (+) or without (−) NSC682769 (100 nM, 18 h) and harvested and separated into cytoplasmic and nuclear cellular fractions. Cytoplasmic versus nuclear material was subsequently immunoblotted for the indicated proteins. […] Values in top right corner of panels correspond to the percentage of nuclear localized YAP. Cells were grown on coverslips and treated with NSC682769. Cells were permeabilized and stained using primary antibody to YAP1 and FITC-conjugated secondary. Nuclei were stained with DAPI. Scale bar, 20 μm.
Surface plasmon resonance (SPR), ELISA, YAP-TEAD reporter activity, cellular fractionation, and immunofluorescence analyses. SPR experiments were carried out on a Nicoya OpenSPR™ instrument using immobilized YAP on a carboxyl-coated sensor. […] YAP-TEAD reporter activity was determined as previously described (Kim N G, Gumbiner B M (2015) J Cell Biol 210: 503-515). […] Luciferase activity was measured via a luciferase assay system (Promega). […] Cell lysis was monitored by trypan blue staining. […]

COc1ccc(-c2cc(-c3ccccc3)nc3c2CC(=O)Nc2ccccc2-3)cc1OC [NSC682769]
YAP-TEAD transcriptional activity (luciferase): markedly reduced
